One block for each molecule: values may come before it.
How the values were obtained:
[1] = Stability influencing factors: high temperature test; assay type: physicochemical
Method: (§1) In accordance with “Stability Testing of New Drug Substances and Products” in ICH Q1A and “Guidelines for the Stability Testing of Drug Substances and Preparations” in Pharmacopoeia of China, fourth part, 2015 edition, 9001, the stability influencing factors were tested for the crystal of the monohydrate formula II, including high temperature, high humidity and light tests.
(§2) In accordance with “Stability Testing of New Drug Substances and Products” in ICH Q1A and “Guidelines for the Stability Testing of Drug Substances and Preparations” in Pharmacopoeia of China, fourth part, 2015 edition, 9001, the stability influencing factors were tested for the crystal of the compound of formula I, including high temperature and high humidity tests.
(§3) In accordance with “Stability Testing of New Drug Substances and Products” in ICH Q1A and “Guidelines for the Stability Testing of Drug Substances and Preparations” in Pharmacopoeia of China, fourth part, 2015 edition, 9001, the stability influencing factors were tested for the amorphous form of the compound of formula I, including high temperature and high humidity tests.

[2] = Stability influencing factors: high humidity test; assay type: physicochemical
Method: as §1, §2, §3

[3] = Stability influencing factors: light test; assay type: physicochemical
Method: as §1

[4] = biological target: IDH1(R132C) (Homo sapiens, UniProt O75874, R132C); test: Enzyme assay (NADPH/diaphorase/resazurin), IDH1 mutant inhibition; assay type: biochemical; conditions: 16 h pre-incubation with enzyme and NADPH at 23° C.
Chain of IDH1(R132C) (O75874 whole entry R132C): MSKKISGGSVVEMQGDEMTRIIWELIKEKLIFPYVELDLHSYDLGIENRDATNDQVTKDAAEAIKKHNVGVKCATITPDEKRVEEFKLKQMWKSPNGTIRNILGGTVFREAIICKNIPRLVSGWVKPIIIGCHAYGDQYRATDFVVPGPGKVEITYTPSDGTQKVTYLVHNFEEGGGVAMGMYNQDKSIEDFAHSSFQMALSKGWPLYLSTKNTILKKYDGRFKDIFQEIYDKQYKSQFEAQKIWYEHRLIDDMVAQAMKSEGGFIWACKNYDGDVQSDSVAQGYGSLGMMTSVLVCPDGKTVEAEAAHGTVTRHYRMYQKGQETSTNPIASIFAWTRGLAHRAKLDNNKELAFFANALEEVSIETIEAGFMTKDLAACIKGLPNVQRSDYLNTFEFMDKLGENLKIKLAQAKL
Description: (§4) Resazurin is a traditional redox dye, and after a redox reaction, it can be reduced from a blue resazurin without fluorescence to a pink fluorescent substance, resorufin, which can be measured and quantified with relative fluorescence unit (RFU) of fluorophotometer (Ex=530-570 nm, Em=590-620 nm). At present, resazurin is widely used for determining the viability of bacteria, cells, etc., and the enzyme activity detection of oxidoreductase. We detected the decrease of cofactor NADPH to determine the inhibitory activity of a compound against IDH1m and detected the generation of cofactor NADPH to determine the inhibitory activity of a compound against IDH WT. […] The amount of the remaining cofactor NADPH after a specific reaction time was quantified via an easily detectable fluorophore.
(§5) The specific operation was as follows: 2.5 μl of the compound diluted in a 3-fold gradient was added to a 384-well plate, followed by adding 5 μl of the reaction buffer (20 mM Tris-HCl, pH 7.5; 150 mM NaCl; 10 mM MgCl2; 0.4 mg/mL BSA (Bovine Serum Albumin) and 2 mM DTT (dithiothreitol)) containing 40 nM IDH1 (R132H/R132C) and 20 μM NADPH. […] After incubating at 23° C. for 10 minutes, fluorescence values were determined through Flexstation 3 at Ex535/Em595. […]

[5] = biological target: IDH1(R132H) (Homo sapiens, UniProt O75874, R132H); test: as above; assay type: biochemical; conditions: 16 h pre-incubation with enzyme and NADPH at 23° C.
Chain of IDH1(R132H) (O75874 whole entry R132H): as the sequence (O75874 whole entry R132C) above, with C132H counted along it
Description: as §4, §5

[6] = Pharmacokinetic experiments, single peroral administration; assay type: in vivo; conditions: rat; male SD rats, oral 5 mg/kg, suspension in 0.5% MC, 0.2% Tween80, plasma
Method: Male SD rats were from Beijing Vital River Laboratory Animal Technology Co., Ltd., and divided into groups (3 rats per group). The rats were intragastrically administered with the test sample suspension (5 mg/kg) via a single peroral administration, respectively. The animals were fasted overnight before this study. The fasting time period was from 10 hours before administration to 4 hours after administration. Blood samples were taken at 0.25, 0.5, 1, 2, 4, 6, 8 and 24 hours after administration. After the rats were anesthetized with isoflurane using an anesthesia machine for small animal, and then 0.3 mL whole blood samples were taken from the fundus venous plexus. The blood samples were placed in heparin anticoagulant tubes, and centrifuged for 5 min at 4° C. and 4000 rpm. The plasma was transferred to centrifuge tubes, and stored at −80° C. till analysis. The samples in plasma were extracted through protein precipitation. The liquid extract was analyzed by LC-MS/MS, wherein HPLC conditions were as follows: flow rate 0.4 mL/min; mobile phase A: water/formic acid (99.9/0.1, v/v); mobile phase B: acetonitrile/formic acid (99.9/0.1, v/v); injection volume: 5 μL; column temperature: RT; autosampler temperature: RT; run time: 2.5 min.

Appearance ([1]; 0 day): White | Enantiomers (%) ([1]; 0 day): 0.01% | Total impurities (%) ([1]; 0 day): 0.38% | Total of diastereoisomers (%) ([1]; 0 day): 0.05% | Water (%) ([1]; 0 day): 3.10% | Appearance ([1]; 40° C., 5 day): White | Enantiomers (%) ([1]; 40° C., 5 day): 0.01% | Total impurities (%) ([1]; 40° C., 5 day): 0.45% | Total of diastereoisomers (%) ([1]; 40° C., 5 day): 0.05% | Water (%) ([1]; 40° C., 5 day): 2.69% | Appearance ([1]; 40° C., 10 day): White | Enantiomers (%) ([1]; 40° C., 10 day): 0.01% | Total impurities (%) ([1]; 40° C., 10 day): 0.47% | Total of diastereoisomers (%) ([1]; 40° C., 10 day): 0.05% | Water (%) ([1]; 40° C., 10 day): 2.45% | Appearance ([1]; 60° C., 5 day): White | Total impurities (%) ([1]; 60° C., 5 day): 0.48% | Total of diastereoisomers (%) ([1]; 60° C., 5 day): 0.05% | Water (%) ([1]; 60° C., 5 day): 2.67% | Appearance ([1]; 60° C., 10 day): White | Enantiomers (%) ([1]; 60° C., 10 day): 0.01% | Total impurities (%) ([1]; 60° C., 10 day): 0.47% | Total of diastereoisomers (%) ([1]; 60° C., 10 day): 0.05% | Water (%) ([1]; 60° C., 10 day): 2.51% | Appearance ([2]; 0 day): White | Enantiomers (%) ([2]; 0 day): 0.01% | Total impurities (%) ([2]; 0 day): 0.38% | Total of diastereoisomers (%) ([2]; 0 day): 0.05% | Water (%) ([2]; 0 day): 3.10% | Appearance ([2]; 75% RH, 5 day): White | Enantiomers (%) ([2]; 75% RH, 5 day): 0.01% | Total impurities (%) ([2]; 75% RH, 5 day): 0.44% | Total of diastereoisomers (%) ([2]; 75% RH, 5 day): 0.05% | Water (%) ([2]; 75% RH, 5 day): 2.69% | Appearance ([2]; 75% RH, 10 day): White | Enantiomers (%) ([2]; 75% RH, 10 day): 0.01% | Total impurities (%) ([2]; 75% RH, 10 day): 0.50% | Total of diastereoisomers (%) ([2]; 75% RH, 10 day): 0.05% | Water (%) ([2]; 75% RH, 10 day): 2.53% | Appearance ([2]; 92.5% RH, 5 day): White | Enantiomers (%) ([2]; 92.5% RH, 5 day): 0.01% | Total impurities (%) ([2]; 92.5% RH, 5 day): 0.49% | Total of diastereoisomers (%) ([2]; 92.5% RH, 5 day): 0.04% | Water (%) ([2]; 92.5% RH, 5 day): 2.72% | Appearance ([2]; 92.5% RH, 10 day): White | Enantiomers (%) ([2]; 92.5% RH, 10 day): 0.01% | Total impurities (%) ([2]; 92.5% RH, 10 day): 0.49% | Total of diastereoisomers (%) ([2]; 92.5% RH, 10 day): 0.05% | Water (%) ([2]; 92.5% RH, 10 day): 2.42% | Appearance ([3]; 0 day): White | Enantiomers (%) ([3]; 0 day): 0.01% | Total impurities (%) ([3]; 0 day): 0.38% | Total of diastereoisomers (%) ([3]; 0 day): 0.05% | Water (%) ([3]; 0 day): 3.10% | Appearance ([3]; Lighting, 5 day): White | Enantiomers (%) ([3]; Lighting, 5 day): 0.01% | Total impurities (%) ([3]; Lighting, 5 day): 0.56% | Total of diastereoisomers (%) ([3]; Lighting, 5 day): 0.05% | Water (%) ([3]; Lighting, 5 day): 2.72% | Appearance ([3]; Lighting, 10 day): White | Enantiomers (%) ([3]; Lighting, 10 day): 0.01% | Total impurities (%) ([3]; Lighting, 10 day): 0.63% | Total of diastereoisomers (%) ([3]; Lighting, 10 day): 0.05% | Water (%) ([3]; Lighting, 10 day): 2.47% | Appearance ([3]; shading, 5 day): White | Enantiomers (%) ([3]; shading, 5 day): 0.01% | Total impurities (%) ([3]; shading, 5 day): 0.49% | Total of diastereoisomers (%) ([3]; shading, 5 day): 0.05% | Water (%) ([3]; shading, 5 day): 2.73% | Appearance ([3]; shading, 10 day): White | Enantiomers (%) ([3]; shading, 10 day): 0.01% | Total impurities (%) ([3]; shading, 10 day): 0.47% | Total of diastereoisomers (%) ([3]; shading, 10 day): 0.05% | Water (%) ([3]; shading, 10 day): 2.55%
Compound: N#Cc1ccnc(N2[C@H](C(=O)N(c3cccc(F)c3)[C@H](C(=O)NC3CC(F)(F)C3)c3ccccc3Cl)CCS2(=O)=O)c1 [crystal of the monohydrate of formula II]

IC50 [4]: < 20 nM | IC50 [5]: < 20 nM | Tmax [6]: 4 h
Compound: N#Cc1ccnc(N2[C@H](C(=O)N(c3cccc(F)c3)[C@H](C(=O)NC3CC(F)(F)C3)c3ccccc3Cl)CCS2(=O)=O)c1 [Compound of formula I, (S)—N—((S)-1-(2-chlorophenyl)-2-((3,3-difluorocyclobutyl)amino)-2-oxoethyl)-2-(4-cyanopyridin-2-yl)-N-(3-fluorophenyl)-isothiazolidine-3-carboxamide 1,1-dioxide]
